Our source for the glass transition temperature values is the PolyMetriX glass transition set.

SMILES strings stand for the structures.

`*C(=O)Nc1ccc(-c2sc(-c3ccc(NC(=O)c4ccc5c(c4)C(=O)N(c4ccc(-c6sc(-c7ccc(N8C(=O)c9ccc(*)cc9C8=O)cc7)c(-c7ccccc7)c6-c6ccccc6)cc4)C5=O)cc3)c(-c3ccccc3)c2-c2ccccc2)cc1` (repeat unit) yielded a glass transition temperature of 338.00 °C.

In the case of `*C(=O)Nc1ccc(C(c2ccc(NC(=O)c3ccc4c(c3)C(=O)N(c3cccc5c(N6C(=O)c7ccc(*)cc7C6=O)cccc35)C4=O)cc2)(C(F)(F)F)C(F)(F)F)cc1` (repeat unit), the glass transition temperature worked out at 250.00 °C.

Compound `*C(=O)Nc1ccc(C2(c3ccc(NC(=O)c4ccc5c(c4)C(=O)N(c4ccc(Oc6cccc(Oc7ccc(N8C(=O)c9ccc(*)cc9C8=O)cc7)c6)cc4)C5=O)cc3)c3ccccc3-c3ccccc32)cc1` (repeat unit) yielded a glass transition temperature of 278.00 °C.

With `*C(=O)OCCCCCCCCCCOC(=O)c1ccc(NC(=O)c2ccc(N3C(=O)c4ccc(*)cc4C3=O)cc2)cc1` (repeat unit), the glass transition temperature amounted to 102.00 °C.

As for `*C(=O)OCCCCCCCCOC(=O)c1ccc(NC(=O)c2ccc(N3C(=O)c4ccc(*)cc4C3=O)cc2)cc1` (repeat unit), the glass transition temperature amounted to 105.00 °C.

Regarding `*C(=O)OCCCCCOC(=O)c1ccc(NC(=O)c2ccc(N3C(=O)c4ccc(*)cc4C3=O)cc2)cc1` (repeat unit), the glass transition temperature came to 129.00 °C.

For `*C(=O)c1ccc(C(=O)N2CC(C)N(*)CC2C)cc1` (repeat unit), the glass transition temperature amounted to 350.00 °C.

For the compound `*C(=O)c1ccc2c(c1)C(=O)N(c1ccc(C(=O)Nc3ccc(Oc4ccc(NC(=O)c5ccc(NC(=O)Nc6ccc(Cc7ccc(NC(=O)Nc8ccc(C(=O)Nc9ccc(Oc%10ccc(NC(=O)c%11ccc(N%12C(=O)c%13ccc(*)cc%13C%12=O)cc%11)cc%10)cc9)cc8)cc7)cc6)cc5)cc4)cc3)cc1)C2=O` (repeat unit), the glass transition temperature was 229.00 °C.

`*CCCCCCCCCCCCOC(=O)Nc1ccc(Cc2ccc(NC(=O)O*)cc2)cc1` (repeat unit): the glass transition temperature was 43.00 °C.

In turn, `*CCCCCCCOC(=O)Nc1ccc(Cc2ccc(NC(=O)O*)cc2)cc1` (repeat unit) displayed a glass transition temperature of 84.00 °C.

`*CCN(CCCCCCOc1ccc(/N=N/c2ccccc2)cc1)CCOC(=O)Nc1ccc(Cc2ccc(NC(=O)O*)cc2)cc1` (repeat unit) gave a glass transition temperature of 44.00 °C.

Consider `*CCN(CCCCCOc1ccc(/N=N/c2ccccc2)cc1)CCOC(=O)Nc1ccc(Cc2ccc(NC(=O)O*)cc2)cc1` (repeat unit), for which the glass transition temperature was 59.60 °C.

`*CCOC(=O)Nc1ccc(CCCCc2ccc(NC(=O)O*)cc2)cc1` (repeat unit) returned a glass transition temperature of 105.70 °C.

With `*CCOC(=O)Nc1ccc(CCc2ccc(NC(=O)O*)cc2)cc1` (repeat unit), the glass transition temperature was determined as 116.90 °C.

Compound `*CCOC(=O)Nc1ccc(Cc2ccc(NC(=O)OCCOc3ccc(C4(c5ccc(O*)cc5)c5ccccc5-c5ccccc54)cc3)cc2)cc1` (repeat unit) yielded a glass transition temperature of 152.00 °C.

With `*CCOCCOCCOCCOC(=O)Nc1ccc(Cc2ccc(NC(=O)O*)cc2)cc1` (repeat unit), the glass transition temperature was found to be 37.00 °C.

On to `*COC(=O)Nc1ccc(Cc2ccc(NC(=O)OCc3ccc(*)o3)cc2)cc1` (repeat unit), for which the glass transition temperature came to 81.00 °C.

As for `*Cc1cccc(COC(=O)Nc2ccc(Cc3ccc(NC(=O)O*)cc3)cc2)c1` (repeat unit), the glass transition temperature came out at 106.00 °C.

In turn, `*NC(=O)Nc1ccc(Cc2ccc(NC(=O)Nc3cccc(*)n3)cc2)cc1` (repeat unit) had a glass transition temperature of 206.50 °C.

For `*Nc1cc(NC(=O)Nc2ccc(Cc3ccc(NC(*)=O)cc3)cc2)cc(C(=O)Nc2ccc3c(c2)C(=O)c2ccccc2C3=O)c1` (repeat unit), the glass transition temperature was determined as 168.00 °C.

Regarding `*Nc1cc(NC(=O)Nc2ccc(Cc3ccc(NC(*)=O)cc3)cc2)cc(C(=O)Nc2cccc3c2C(=O)c2ccccc2C3=O)c1` (repeat unit), the glass transition temperature is 178.00 °C.

For `*Nc1ccc(-c2ccc(Nc3ccc4c(c3)c3cc(*)ccc3n4CC(CC)CCCC)cc2)cc1` (repeat unit), the glass transition temperature is 231.00 °C.

Compound `*Nc1ccc(/C=C/c2ccc(NC(=C(C#N)C#N)c3ccc(C(*)=C(C#N)C#N)cc3)cc2)cc1` (repeat unit) had a glass transition temperature of 250.00 °C.

Consider `*Nc1ccc(C(=O)c2ccc(C(=O)c3ccc(Nc4ccc5c(c4)c4cc(*)ccc4n5CC(CC)CCCC)cc3)cc2)cc1` (repeat unit), for which the glass transition temperature came out at 213.00 °C.

`*Nc1ccc(C(=O)c2ccc(Nc3ccc4c(c3)c3cc(*)ccc3n4CC(CC)CCCC)cc2)cc1` (repeat unit) displayed a glass transition temperature of 236.1 °C.

As to `*Nc1ccc(C(c2ccc(NC(=O)c3ccc(C(*)=O)cc3)cc2)(P2(=O)Oc3ccccc3-c3ccccc32)P2(=O)Oc3ccccc3-c3ccccc32)cc1` (repeat unit), the glass transition temperature worked out at 245.00 °C.

For `*Nc1ccc(C(c2ccc(NC(=O)c3ccc4cc(C(*)=O)ccc4c3)cc2)(P2(=O)Oc3ccccc3-c3ccccc32)P2(=O)Oc3ccccc3-c3ccccc32)cc1` (repeat unit), the glass transition temperature was found to be 241.00 °C.

The compound `*Nc1ccc(C(c2ccc(NC(=O)c3cccc(C(*)=O)c3)cc2)(P2(=O)Oc3ccccc3-c3ccccc32)P2(=O)Oc3ccccc3-c3ccccc32)cc1` (repeat unit) returned a glass transition temperature of 230.00 °C.

Take `*Nc1ccc(C2(c3ccc(NC(=O)c4cc(NC(=O)C56CC7CC(CC(C7)C5)C6)cc(C(*)=O)c4)cc3)c3ccccc3-c3ccccc32)cc1` (repeat unit): the glass transition temperature was determined as 370.00 °C.

`*Nc1ccc(C2(c3ccc(NC(=O)c4ccc(C(*)=O)cc4)cc3)c3ccccc3-c3ccccc32)cc1` (repeat unit) had a glass transition temperature of 319.00 °C.

Turning to `*Nc1ccc(Cc2ccc(NC(=O)c3cc(C(*)=O)cc(N4C(=O)C5CC=CCC5C4=O)c3)cc2)cc1` (repeat unit), the glass transition temperature stood at 286.00 °C.

For the compound `*Nc1ccc(NC(=O)c2ccc(C(=O)c3ccc(C(*)=O)c(C(=O)OCC)c3)cc2C(=O)OCC)cc1` (repeat unit), the glass transition temperature is 275.00 °C.

`*Nc1cccc(CCc2ccc(NC(=O)c3cccc(C(*)=O)c3)cc2)c1` (repeat unit): the glass transition temperature came to 203.00 °C.

`*Nc1ccccc1CCc1ccccc1NC(=O)Nc1ccc(CCc2ccc(NC(*)=O)cc2)cc1` (repeat unit) had a glass transition temperature of 235.00 °C.

As for `*OC(c1ccco1)C(OC(=O)Nc1ccc(Cc2ccc(NC(*)=O)cc2)cc1)c1ccco1` (repeat unit), the glass transition temperature came out at 74.00 °C.

Take `*Oc1ccc(/N=C/CCC/C=N/c2ccc(OC(=O)Nc3ccc(Cc4ccc(NC(*)=O)cc4)cc3)cc2)cc1` (repeat unit): the glass transition temperature amounted to 76.00 °C.

Consider `*Oc1ccc(C(=O)Nc2ccc(C(c3ccc(NC(=O)c4ccc(OC(=O)c5cccc(C(*)=O)c5)cc4)cc3)(C(F)(F)F)C(F)(F)F)cc2)cc1` (repeat unit), for which the glass transition temperature came out at 227.00 °C.

Take `*Oc1ccc(C(=O)Nc2ccc(Cc3ccc(NC(=O)c4ccc(Oc5ccc(C(=O)c6ccc(S(=O)(=O)c7ccc(C(=O)c8ccc(*)cc8)cc7)cc6)cc5)cc4)cc3)cc2)cc1` (repeat unit): the glass transition temperature stood at 240.00 °C.

The compound `*Oc1ccc(Oc2ccc(C(=O)Nc3ccc(Cc4ccc(NC(=O)c5ccc(*)cc5)cc4)cc3)cc2)cc1` (repeat unit) registered a glass transition temperature of 216.00 °C.

`*Oc1ccc(Oc2ccc(C(=O)c3ccc(NC(=O)c4ccc(C(=O)Nc5ccc(C(=O)c6ccc(*)cc6)cc5)cc4)cc3)cc2)cc1` (repeat unit) gave a glass transition temperature of 224.00 °C.

As to `*Oc1cccc(C(=O)Nc2ccc(-c3ccc(NC(=O)c4cccc(Oc5nc(*)nc(Sc6ccccc6)n5)c4)cc3)cc2)c1` (repeat unit), the glass transition temperature came to 279.00 °C.

Consider `*c1ccc(C(=O)Nc2ccc(-c3ccccc3NC(=O)c3ccc(S(*)(=O)=O)cc3)cc2)cc1` (repeat unit), for which the glass transition temperature was 284.00 °C.

For `*c1ccc(C(=O)Nc2ccc(-c3nnc(*)o3)cc2)c(Oc2ccccc2)c1` (repeat unit), the glass transition temperature turned out to be 235.00 °C.

For `*c1ccc(C(=O)c2ccc(-n3nc(-c4ccc(Sc5ccc(-c6nn(*)c(=O)c7ccccc67)cc5)cc4)c4ccccc4c3=O)cc2)cc1` (repeat unit), the glass transition temperature was determined as 281.00 °C.

Compound `*c1ccc(C(=O)c2ccc(-n3nc(-c4ccccc4)c4cc(Oc5ccc6c(-c7ccccc7)nn(*)c(=O)c6c5)ccc4c3=O)cc2)cc1` (repeat unit) yielded a glass transition temperature of 275.50 °C.

As to `*c1ccc(C(=O)c2ccc(Oc3ccc(-c4nn(*)c(=O)c5ccccc45)cc3)cc2)cc1` (repeat unit), the glass transition temperature came out at 263.00 °C.

`*c1ccc(NC(=O)c2cc(C(=O)Nc3ccc(-c4nnc(*)o4)cc3)cc(N3C(=O)c4ccccc4C3=O)c2)cc1` (repeat unit) returned a glass transition temperature of 327.00 °C.

As to `*c1ccc(NC(=O)c2ccc(OCCOCCOCCOCCOCCOc3ccc(C(=O)Nc4ccc5[nH]c(*)nc5c4)cc3)cc2)cc1` (repeat unit), the glass transition temperature stood at 125.00 °C.

The compound `*c1ccc(NC(=O)c2ccc(OCCOCCOc3ccc(C(=O)Nc4ccc5[nH]c(*)nc5c4)cc3)cc2)cc1` (repeat unit) had a glass transition temperature of 175.00 °C.

As to `*c1ccc(NC(=O)c2ccc(OCCOc3ccc(C(=O)Nc4ccc5[nH]c(*)nc5c4)cc3)cc2)cc1` (repeat unit), the glass transition temperature was determined as 225.00 °C.

For the compound `*c1ccc(NC(=O)c2cccc(C(=O)Nc3ccc(-n4c(=O)c5cc6c(=O)n(*)c(=O)c6cc5c4=O)cc3)c2)cc1` (repeat unit), the glass transition temperature came out at 296.00 °C.

In turn, `*c1ccc(NC2CC(=O)N(c3ccc(-c4sc(-c5ccc(N6C(=O)CC(Nc7ccc(-c8nc(-c9ccc(/C=C/c%10ccc([N+](=O)[O-])cc%10)s9)[nH]c8*)cc7)C6=O)cc5)c(-c5ccccc5)c4-c4ccccc4)cc3)C2=O)cc1` (repeat unit) came in with a glass transition temperature of 304.00 °C.

`*c1ccc(NC2CC(=O)N(c3ccc(Cc4ccc(N5C(=O)CC(Nc6ccc(-c7nc(-c8ccc(/C=C/c9ccc([N+](=O)[O-])cc9)cc8)[nH]c7*)cc6)C5=O)cc4)cc3)C2=O)cc1` (repeat unit) yielded a glass transition temperature of 250.00 °C.
